From patent US20260183407A1, “DYRK/CLK PROTACS AND USES THEREOF” (Arizona Board of Regents on Behalf of the University of …, priority 2022, published 2026)

Columns and labels:
DYRK1A [1] = molecular target: T1, DYRK1A (Homo sapiens, UniProt Q13627); assay: KdELECT kinase binding assay (Eurofins), DYRK1A; settings: 11-point 3-fold dilution series, qPCR readout; read-out: Binding Affinity (Kd) DYRK1A
T1 construct: purchased Eurofins; host or cells: E. coli BL21-derived (T7 phage display) or HEK-293
Method: (§1) KDs were obtained from Eurofins who used the following procedure: Kinase tagged T7 phase strains were prepared in an E. coli host derived from the BL21 strain. E. coli were grown to log-phase and infected with T7 phage and incubated with shaking at 32° C. until lysis. The lysates were centrifuged and filtered to remove cell debris. The remaining kinases were produced in HEK-293 cells and subsequently tagged with DNA for qPCR detection. Streptavidin-coated magnetic beads were treated with biotinylated small molecule ligands for 30 minutes at room temperature to generate affinity resins for kinase assays. The liganded beads were blocked with excess biotin and washed with locking buffer (SeaBlock (Pierce), 1% BSA, 0.05% Tween 20, 1 mM DTT) to remove unbound ligand and to reduce non-specific binding. Binding reactions were assembled by combining kinases, liganded affinity beads, and test compounds in 1× binding buffer (20% SeaBlock, 0.17× PBS, 0.05% Tween 20, 6 mM DTT). Test compounds were prepared as 111X stocks in 100% DMSO. Kds were determined using a 11-poin 3-fold compound dilution series with three DMSO control points. All compounds for Kd measurements are distributed by acoustic transfer (non-contact dispensing) in 100% DMSO. The compounds were then diluted directly into the assays such that the final concentration of DMSO was 0.9%. All reactions performed in polypropylene 384-well plate. Each was a final volume of 0.02 mL. The assay plates were incubated at room temperature with shaking for 1 hour and the affinity beads were washed with wash buffer (1×PBS, 0.05% Tween 20). The beads were then resuspended in elution buffer (1X PBS, 0.05% Tween 20, 0.5 µM nonbiotinylated affinity ligand) and incubated at room temperature with shaking for 30 minutes. The kinase concentration in the eluates was measured by qPCR.

DYRK1A [2] = molecular target: T1, DYRK1A; assay: HiBiT split luciferase assay of targeted degradation of DYRK1A in Flp-In T-REx 293 cells; format: cell-based; settings: 300 nM compound, 24 h, HiBiT-tagged DYRK1A in Flp-In T-REx 293 cells, normalized to vehicle; read-out: Relative Degradation at 300 nM DYRK1A
Source text: The Flp-In T-REx 293 Cell Line and the pcDNA5/FRT/TO vector (Invitrogen) were used to generate stable cell clones for tetracyclin-inducible expression of DYRK1A and DYRK1B. These cells contain a single stably integrated Flp recognition target (FRT) site, which allows for site-specific integration of the expression cassette by the Flp (Flippase) recombinase. DYRK1 constructs were designed to contain a C-terminal HiBiT tag for quantitative detection of HiBiT-tagged proteins in cellular lysates with the help a split luciferase assay (Nano-Glo HiBiT Lytic Detection System, Promega). To monitor the targeted degradation of DYRK1A or DYRK1B, cells were seeded in 96-well plates (10,000 cells/per well) and treated with doxycyclineinal concentration 2 μg/ml) to induce DYRK1 expression. Compounds with presumed PROTAC activity were administered 24 h after seeding. After further incubation for 24 h, cells were grossly and microscopically inspected for overt toxicity. Cells were lysed in 100 μL ice-cold passive lysis buffer (PLB, Promega) by orbital shaking (30 min on ice) before lysates were centrifuged in PCR tube (20 min 20,000 g, RT). A 10 μl aliquot of the supernatant was subjected to the HiBiT lytic assay. Luminescence was quantified in an Orion Microplate luminometer (Berthold Detection System, Germany). All compounds were tested in duplicate or triplicate wells (technical replicates) and at least two independent experiments. Relative degradation was calculated by normalization to vehicle-treated control samples.

DYRK1B = molecular target: T2, DYRK1B (Homo sapiens, UniProt Q9Y463); assay: KdELECT kinase binding assay (Eurofins), DYRK1B; settings: 11-point 3-fold dilution series, qPCR readout; read-out: Binding Affinity (Kd) DYRK1B
T2 construct: purchased Eurofins; host or cells: E. coli BL21-derived (T7 phage display) or HEK-293
Method: as §1

T2 sequence (Q9Y463 whole entry, species assumed): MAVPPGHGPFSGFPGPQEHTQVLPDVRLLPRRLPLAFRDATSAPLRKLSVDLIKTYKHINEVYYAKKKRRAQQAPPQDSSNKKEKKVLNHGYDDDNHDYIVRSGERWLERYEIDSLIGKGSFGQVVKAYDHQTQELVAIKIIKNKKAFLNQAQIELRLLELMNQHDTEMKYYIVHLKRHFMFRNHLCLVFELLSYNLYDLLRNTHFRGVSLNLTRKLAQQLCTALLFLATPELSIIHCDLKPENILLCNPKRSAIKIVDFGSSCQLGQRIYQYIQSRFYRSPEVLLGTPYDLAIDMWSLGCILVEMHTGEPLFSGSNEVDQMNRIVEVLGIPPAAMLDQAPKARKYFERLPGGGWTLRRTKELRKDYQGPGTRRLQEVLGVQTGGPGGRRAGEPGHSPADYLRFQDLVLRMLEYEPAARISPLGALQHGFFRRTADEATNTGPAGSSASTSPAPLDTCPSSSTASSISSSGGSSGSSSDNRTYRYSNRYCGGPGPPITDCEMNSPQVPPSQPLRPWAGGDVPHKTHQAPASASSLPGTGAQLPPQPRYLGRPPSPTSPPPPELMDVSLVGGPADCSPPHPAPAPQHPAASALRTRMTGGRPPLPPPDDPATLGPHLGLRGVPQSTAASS

SMILES	Kd (DYRK1A [1])	inhibition at 0.3 µM (DYRK1A [2])	Kd (DYRK1B)
Cc1nc2ccc(-c3ccnc(N)c3)nc2n1-c1ccc(N2CCN(C(=O)CN3CCC(CC(=O)N4CCC(n5cc(CNc6cccc7c6C(=O)N(C6CCC(=O)NC6=O)C7=O)cn5)CC4)CC3)CC2)c(F)c1 (stereo not drawn) [Compound 17, 4-(((1-(1-(2-(1-(2-(4-(4-(5-(2-aminopyridin-4-yl)-2-methyl-3H-imidazo[4,5-b]pyridin-3-yl)-2-fluorophenyl)piperazin-1-yl)-2-oxoethyl)piperidin-4-yl)acetyl)piperidin-4-yl)-1H-pyrazol-4-yl)methyl)amino)-2-(2,6-dioxopiperidin-3-yl)isoindoline-1,3-dione]	< 10 nM	< 30%	–
Cc1nc2ccc(-c3ccnc(N)c3)nc2n1-c1ccc(N2CCN(C(=O)CCCCCN3CCN(Cc4ccc(CNc5cccc6c5CN(C5CCC(=O)NC5=O)C6=O)cc4)CC3)CC2)c(F)c1 (stereo not drawn) [Compound 15, 3-(4-((4-((4-(6-(4-(4-(5-(2-aminopyridin-4-yl)-2-methyl-3H-imidazo[4,5-b]pyridin-3-yl)-2-fluorophenyl)piperazin-1-yl)-6-oxohexyl)piperazin-1-yl)methyl)benzyl)amino)-1-oxoisoindolin-2-yl)piperidine-2,6-dione]	< 10 nM	< 30%	–
Cc1nc2ccc(-c3ccnc(N)c3)nc2n1-c1ccc(N2CCN(CC#Cc3ccc(N4CCC(O)(C(=O)N5CCC(n6cc(CNc7cccc8c7C(=O)N(C7CCC(=O)NC7=O)C8=O)cn6)CC5)CC4)nc3)CC2)c(F)c1 (stereo not drawn) [Compound 33, 4-(((1-(1-(1-(5-(3-(4-(4-(5-(2-aminopyridin-4-yl)-2-methyl-3H-imidazo[4,5-b]pyridin-3-yl)-2-fluorophenyl)piperazin-1-yl)prop-1-yn-1-yl)pyridin-2-yl)-4-hydroxypiperidine-4-carbonyl)piperidin-4-yl)-1H-pyrazol-4-yl)methyl)amino)-2-(2,6-dioxopiperidin-3-yl)isoindoline-1,3-dione]	–	> 60%	–
COc1cc(-n2c(C)nc3ccc(-c4ccnc(N)c4)nc32)ccc1N1CCN(CCC#Cc2ccc(N3CCC(C(=O)N4CCC(n5cc(CNc6cccc7c6C(=O)N(C6CCC(=O)NC6=O)C7=O)cn5)CC4)CC3)nc2)CC1 (stereo not drawn) [Compound 38, 4-(((1-(1-(1-(5-(4-(4-(4-(5-(2-aminopyridin-4-yl)-2-methyl-3H-imidazo[4,5-b]pyridin-3-yl)-2-methoxyphenyl)piperazin-1-yl)but-1-yn-1-yl)pyridin-2-yl)piperidine-4-carbonyl)piperidin-4-yl)-1H-pyrazol-4-yl)methyl)amino)-2-(2,6-dioxopiperidin-3-yl)isoindoline-1,3-dione]	< 10 nM	–	10 to 100 nM
Cc1nc2ccc(-c3ccnc(N)c3)nc2n1-c1ccc(N2CCN(CCOCCOCCOCCC(=O)N3CCN(c4ccc5c(c4)C(=O)N(C4CCC(=O)NC4=O)C5=O)CC3)CC2)c(F)c1 (stereo not drawn) [Compound 9, 5-(4-(3-(2-(2-(2-(4-(4-(5-(2-aminopyridin-4-yl)-2-methyl-3H-imidazo[4,5-b]pyridin-3-yl)-2-fluorophenyl)piperazin-1-yl)ethoxy)ethoxy)ethoxy)propanoyl)piperazin-1-yl)-2-(2,6-dioxopiperidin-3-yl)isoindoline-1,3-dione]	< 10 nM	< 30%	–
Cc1nc2ccc(-c3ccnc(N)c3)nc2n1-c1ccc(N2CCN(CCOCCOCCOCCC(=O)NC3CN(c4ccc5c(c4)C(=O)N(C4CCC(=O)NC4=O)C5=O)C3)CC2)c(F)c1 (stereo not drawn) [Compound 8, 3-(2-(2-(2-(4-(4-(5-(2-aminopyridin-4-yl)-2-methyl-3H-imidazo[4,5-b]pyridin-3-yl)-2-fluorophenyl)piperazin-1-yl)ethoxy)ethoxy)ethoxy)-N-(1-(2-(2,6-dioxopiperidin-3-yl)-1,3-dioxoisoindolin-5-yl)azetidin-3-yl)propanamide]	< 10 nM	< 30%	–
Cc1nc2ccc(-c3ccnc(N)c3)nc2n1-c1cc(F)c(N2CCN(CC#Cc3ccc(N4CCC(C(=O)N5CCC(n6cc(COc7ccc(C8CCC(=O)NC8=O)cc7)cn6)CC5)CC4)nc3)CC2)c(F)c1 (stereo not drawn) [Compound 34, 3-(4-((1-(1-(1-(5-(3-(4-(4-(5-(2-aminopyridin-4-yl)-2-methyl-3H-imidazo[4,5-b]pyridin-3-yl)-2,6-difluorophenyl)piperazin-1-yl)prop-1-yn-1-yl)pyridin-2-yl)piperidine-4-carbonyl)piperidin-4-yl)-1H-pyrazol-4-yl)methoxy)phenyl)piperidine-2,6-dione]	< 10 nM	–	< 10 nM

More lines, now with the values ahead:

Kd (DYRK1A [1])	inhibition at 0.3 µM (DYRK1A [2])	Kd (DYRK1B)	SMILES
< 10 nM	–	10 to 100 nM	Cc1nc2ccc(-c3ccnc(N)c3)nc2n1-c1cc(F)c(N2C[C@@H](C)N(CC#Cc3ccc(N4CCC(C(=O)N5CCC(n6cc(CNc7cccc8c7C(=O)N(C7CCC(=O)NC7=O)C8=O)cn6)CC5)CC4)nc3)[C@@H](C)C2)c(F)c1 (stereo partly drawn) [Compound 37, 4-(((1-(1-(1-(5-(3-((2S,6R)-4-(4-(5-(2-aminopyridin-4-yl)-2-methyl-3H-imidazo[4,5-b]pyridin-3-yl)-2,6-difluorophenyl)-2,6-dimethylpiperazin-1-yl)prop-1-yn-1-yl)pyridin-2-yl)piperidine-4-carbonyl)piperidin-4-yl)-1H-pyrazol-4-yl)methyl)amino)-2-(2,6-dioxopiperidin-3-yl)isoindoline-1,3-dione]
< 10 nM	–	10 to 100 nM	Cc1nc2ccc(-c3ccnc(N)c3)nc2n1-c1cc(F)c(N2CC3(CN(CC#Cc4ccc(N5CCC(C(=O)N6CCC(n7cc(CNc8cccc9c8C(=O)N(C8CCC(=O)NC8=O)C9=O)cn7)CC6)CC5)nc4)C3)C2)c(F)c1 (stereo not drawn) [Compound 40, 4-(((1-(1-(1-(5-(3-(6-(4-(5-(2-aminopyridin-4-yl)-2-methyl-3H-imidazo[4,5-b]pyridin-3-yl)-2,6-difluorophenyl)-2,6-diazaspiro[3.3]heptan-2-yl)prop-1-yn-1-yl)pyridin-2-yl)piperidine-4-carbonyl)piperidin-4-yl)-1H-pyrazol-4-yl)methyl)amino)-2-(2,6-dioxopiperidin-3-yl)isoindoline-1,3-dione]
< 10 nM	–	< 10 nM	Cc1nc2ccc(-c3ccnc(N)c3)nc2n1-c1cc(F)c(N2CCN(C3CN(CC#Cc4ccc(N5CCC(C(=O)N6CCC(n7cc(CNc8cccc9c8C(=O)N(C8CCC(=O)NC8=O)C9=O)cn7)CC6)CC5)nc4)C3)CC2)c(F)c1 (stereo not drawn) [Compound 39, 4-(((1-(1-(1-(5-(3-(3-(4-(4-(5-(2-aminopyridin-4-yl)-2-methyl-3H-imidazo[4,5-b]pyridin-3-yl)-2,6-difluorophenyl)piperazin-1-yl)azetidin-1-yl)prop-1-yn-1-yl)pyridin-2-yl)piperidine-4-carbonyl)piperidin-4-yl)-1H-pyrazol-4-yl)methyl)amino)-2-(2,6-dioxopiperidin-3-yl)isoindoline-1,3-dione]
< 10 nM	–	< 10 nM	Cc1nc2ccc(-c3ccnc(N)c3)nc2n1-c1cc(F)c(N2CCN(C3CCN(CC#Cc4ccc(N5CCC(C(=O)N6CCC(n7cc(CNc8cccc9c8C(=O)N(C8CCC(=O)NC8=O)C9=O)cn7)CC6)CC5)nc4)CC3)CC2)c(F)c1 (stereo not drawn) [Compound 36, 4-(((1-(1-(1-(5-(3-(4-(4-(4-(5-(2-aminopyridin-4-yl)-2-methyl-3H-imidazo[4,5-b]pyridin-3-yl)-2,6-difluorophenyl)piperazin-1-yl)piperidin-1-yl)prop-1-yn-1-yl)pyridin-2-yl)piperidine-4-carbonyl)piperidin-4-yl)-1H-pyrazol-4-yl)methyl)amino)-2-(2,6-dioxopiperidin-3-yl)isoindoline-1,3-dione]
